Reference: patent US20260262643A1, “HERBICIDAL BENZOXAZINES” (FMC CORPORATION, priority 2022, published 2026)

How the values were obtained:
foxtail, giant [1] = experiment: Test A postemergence; type: in vivo, Setaria faberi
Summary of the method: (§1)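 Plants were grown in loam and sand and treated preemergence or postemergence (one- to two-leaf stage, 2–10 cm) with compound in solvent plus surfactant. Response was scored against untreated controls after 10 greenhouse days, where 0 means no effect and 100 complete control.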

ryegrass, Italian [2] = experiment: Test A postemergence; type: in vivo, Lolium multiflorum
Summary of the method: as §1

ragweed [3] = experiment: Test A postemergence; type: in vivo, Ambrosia artemisiifolia
Summary of the method: as §1

kochia [4] = experiment: Test A postemergence; type: in vivo, Bassia scoparia
Summary of the method: as §1

ryegrass, Italian [5] = experiment: Test A preemergence; type: in vivo, Lolium multiflorum
Summary of the method: as §1

barnyardgrass [6] = experiment: Test A preemergence; type: in vivo, Echinochloa crusgalli; settings: 1000 g ai/ha, 0 to 100 scale (0 no effect, 100 complete control), 10 days
Description: (§2) Seeds of plant species selected from barnyardgrass (Echinochloa crusgalli), blackgrass (Alopecurus myosuroides), corn (Zea mays), foxtail, giant (giant foxtail, Setaria faberi), goosegrass (Eleusine indica), kochia (Bassia scoparia), oat, wild (wild oat, Avena fatua), pigweed, palmer (palmer amaranth, palmer pigweed, Amaranthus palmeri), Pigweed, Redroot (redroot pigweed, Amaranthus retroflexus), ragweed (common ragweed, Ambrosia artemisiifolia), ryegrass, Italian (italian ryegrass, Lolium multiflorum), soybean (Glycine max), and wheat (Triticum aestivum) were planted into a blend of loam soil and sand and treated preemergence with a directed soil spray using test chemicals formulated in a non-phytotoxic solvent mixture which included a surfactant. At the same time, plants selected from these crops and weed species and also galium (catchweed bedstraw, Galium aparine) and horseweed (Erigeron canadensis) were planted in pots containing the same blend of loam soil and sand and treated with postemergence applications of test chemicals formulated in the same manner. Plants ranged in height from 2 to 10 cm and were in the one- to two-leaf stage for the postemergence treatment. Treated plants and untreated controls were maintained in a greenhouse for 10 days, after which time all treated plants were compared to untreated controls and visually evaluated for injury. Plant response ratings, summarized in Table A, are based on a 0 to 100 scale where 0 is no effect and 100 is complete control. A dash (-) response means no test result.

blackgrass [7] = experiment: Test A preemergence; type: in vivo, Alopecurus myosuroides
Summary of the method: as §1

horseweed = experiment: Test A postemergence; type: in vivo, Erigeron canadensis
Summary of the method: as §1

kochia [8] = experiment: Test A preemergence; type: in vivo, Bassia scoparia
Summary of the method: as §1

foxtail, giant [9] = experiment: Test A preemergence; type: in vivo, Setaria faberi
Summary of the method: as §1

pigweed, palmer [10] = experiment: Test A preemergence; type: in vivo, Amaranthus palmeri
Summary of the method: as §1

blackgrass [11] = experiment: Test A postemergence; type: in vivo, Alopecurus myosuroides
Summary of the method: as §1

pigweed, palmer [12] = experiment: Test A postemergence; type: in vivo, Amaranthus palmeri
Summary of the method: as §1

ragweed [13] = experiment: Test A preemergence; type: in vivo, Ambrosia artemisiifolia
Summary of the method: as §1

galium = experiment: Test A postemergence; type: in vivo, Galium aparine
Summary of the method: as §1

barnyardgrass [14] = experiment: Test A postemergence; type: in vivo, Echinochloa crusgalli; settings: 1000 g ai/ha, Postemergence; 0 to 100 scale
Description: as §2

oat, wild [15] = experiment: Test A postemergence; type: in vivo, Avena fatua; settings: postemergence, 10 days; for Plant response rating, Oat, Wild: 500 g ai/ha, visual injury, 0 to 100 scale (0 no effect, 100 complete control)
Summary of the method: as §1

wheat [16] = experiment: Test A preemergence; type: in vivo, Triticum aestivum
Summary of the method: as §1

soybean [17] = experiment: Test A preemergence; type: in vivo, Glycine max
Summary of the method: as §1

sedge, umbrella = experiment: Test B flooded paddy test; type: in vivo, Cyperus difformis; settings: 250 g ai/ha, Flood, 13 days, 0 to 100 scale (0 no effect, 100 complete control)
Summary of the method: (§3)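 Two-leaf plants, 3 cm flood, in-water application, 13-day greenhouse hold, visual 0–100 rating vs untreated checks.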

ducksalad = experiment: Test B flooded paddy test; type: in vivo, Heteranthera limosa; settings: 250 g ai/ha, Flood, 13 days, 0 to 100 scale (0 no effect, 100 complete control)
Summary of the method: as §3

goosegrass [18] = experiment: Test A preemergence; type: in vivo, Eleusine indica
Summary of the method: as §1

corn [19] = experiment: Test A preemergence; type: in vivo, Zea mays
Summary of the method: as §1

soybean [20] = experiment: Test A postemergence; type: in vivo, Glycine max; settings: postemergence, 10 days; for Plant response rating, Soybean: 500 g ai/ha, visual injury, 0 to 100 scale (0 no effect, 100 complete control)
Summary of the method: as §1

wheat [21] = experiment: Test A postemergence; type: in vivo, Triticum aestivum; settings: postemergence, 10 days; for Plant response rating, Wheat: 500 g ai/ha, visual injury, 0 to 100 scale (0 no effect, 100 complete control)
Summary of the method: as §1

rice = experiment: Test B flooded paddy test; type: in vivo, Oryza sativa; settings: 250 g ai/ha, Flood, 13 days, 0 to 100 scale (0 no effect, 100 complete control)
Summary of the method: as §3

barnyardgrass [22] = experiment: Test B flooded paddy test; type: in vivo, Echinochloa crus-galli; settings: 250 g ai/ha, Flood, 13 days, 0 to 100 scale (0 no effect, 100 complete control)
Summary of the method: as §3

goosegrass [23] = experiment: Test A postemergence; type: in vivo, Eleusine indica; settings: postemergence, 10 days; for Plant response rating, Goosegrass: visual injury, 0 to 100 scale (0 no effect, 100 complete control)
Summary of the method: as §1

corn [24] = experiment: Test A postemergence; type: in vivo, Zea mays; settings: postemergence, 10 days; for Plant response rating, Corn: visual injury, 0 to 100 scale (0 no effect, 100 complete control)
Summary of the method: as §1

oat, wild [25] = experiment: Test A preemergence; type: in vivo, Avena fatua
Summary of the method: as §1

[26] = 1000 g ai/ha, Postemergence, 0 to 100 scale
[27] = 1000 g ai/ha, 0 to 100 scale (0 no effect, 100 complete control), 10 days
[28] = 125 g ai/ha, 0 to 100 scale, 0 no effect, 100 complete control
[29] = 125 g ai/ha, visual injury after 10 days, 0 to 100 scale, 0 is no effect, 100 is complete control
[30] = 500 g ai/ha, 0 to 100 scale (0 no effect, 100 complete control), 10 days
[31] = 125 g ai/ha, postemergence, 10 days, 0 to 100 scale, 0 no effect, 100 complete control
[32] = 500 g ai/ha, postemergence, 10 days, visual injury, 0 to 100 scale (0 no effect, 100 complete control)
[33] = 125 g ai/ha, postemergence, 10 days, visual injury, 0 to 100 scale (0 no effect, 100 complete control)

## Cc1cccc2c1O[C@@H](C)CN2C(=O)c1cccc(-n2cc(F)cn2)c1 [Compound 131]
foxtail, giant [1]; [26]
  Plant response rating, Foxtail, Giant: 10
ryegrass, Italian [2]; [26]
  Plant response rating, Ryegrass, Italian: 0
Ragweed [3]; [26]
  Plant response rating, Ragweed: 0
Kochia [4]; [26]
  Plant response rating, Kochia: 40
ryegrass, Italian [5]; [27]
  Plant response rating, Ryegrass, Italian: 60
Barnyardgrass [6]
  Plant response rating, Barnyardgrass: 10
Blackgrass [7]; [27]
  Plant response rating, Blackgrass: 10
horseweed; [26]
  Plant response rating, Horseweed: 0
Kochia [8]; [27]
  Plant response rating, Kochia: 0
foxtail, giant [9]; [27]
  Plant response rating, Foxtail, Giant: 60
pigweed, palmer [10]; [27]
  Plant response rating, Pigweed, Palmer: 0
Blackgrass [11]; [26]
  Plant response rating, Blackgrass: 0
pigweed, palmer [12]; [26]
  Plant response rating, Pigweed, Palmer: 0
Ragweed [13]; [27]
  Plant response rating, Ragweed: 0
galium; [26]
  Plant response rating, Galium: 20
Barnyardgrass [14]
  Plant response rating, Barnyardgrass: 10

## CCc1ccc(-n2cnc(C(C)(C)C)n2)cc1C(=O)N1C[C@H](C)Oc2c(Cl)cccc21 [Compound 102]
oat, wild [15]; [28]
  Oat, Wild plant response rating: 10
oat, wild [15]
  Plant response rating, Oat, Wild: 60
Wheat [16]; [29]
  Plant response rating, Wheat: 0
Wheat [16]; [30]
  Plant response rating, Wheat: 0
foxtail, giant [1]; [31]
  Foxtail, Giant plant response rating: 80
foxtail, giant [1]; [32]
  Plant response rating, Foxtail, Giant: 90
ryegrass, Italian [2]; [31]
  Ryegrass, Italian plant response rating: 50
ryegrass, Italian [2]; [32]
  Plant response rating, Ryegrass, Italian: 50
Ragweed [3]; [31]
  Ragweed plant response rating: 20
Ragweed [3]; [32]
  Plant response rating, Ragweed: 40
Soybean [17]; [29]
  Plant response rating, Soybean: 50
Soybean [17]; [30]
  Plant response rating, Soybean: 100
sedge, umbrella
  Plant response rating, Sedge, Umbrella: 95
Kochia [4]; [31]
  Kochia plant response rating: 90
Kochia [4]; [32]
  Plant response rating, Kochia: 90
ryegrass, Italian [5]; [29]
  Plant response rating, Ryegrass, Italian: 80
ryegrass, Italian [5]; [30]
  Plant response rating, Ryegrass, Italian: 100
Blackgrass [7]; [29]
  Plant response rating, Blackgrass: 30
Blackgrass [7]; [30]
  Plant response rating, Blackgrass: 50
ducksalad
  Plant response rating, Ducksalad: 65
horseweed; [31]
  Horseweed plant response rating: 0
horseweed; [32]
  Plant response rating, Horseweed: 0
Goosegrass [18]; [29]
  Plant response rating, Goosegrass: 100
Goosegrass [18]; [30]
  Plant response rating, Goosegrass: 100
Kochia [8]; [29]
  Plant response rating, Kochia: 80
Kochia [8]; [30]
  Plant response rating, Kochia: 100
Corn [19]; [29]
  Plant response rating, Corn: 10
Corn [19]; [30]
  Plant response rating, Corn: 20
Soybean [20]; [28]
  Soybean plant response rating: 100
Soybean [20]
  Plant response rating, Soybean: 100
foxtail, giant [9]; [29]
  Plant response rating, Foxtail, Giant: 90
foxtail, giant [9]; [30]
  Plant response rating, Foxtail, Giant: 100
pigweed, palmer [10]; [29]
  Plant response rating, Pigweed, Palmer: 100
pigweed, palmer [10]; [30]
  Plant response rating, Pigweed, Palmer: 100
Wheat [21]; [28]
  Wheat plant response rating: 10
Wheat [21]
  Plant response rating, Wheat: 30
Blackgrass [11]; [31]
  Blackgrass plant response rating: 0
Blackgrass [11]; [32]
  Plant response rating, Blackgrass: 60
rice
  Plant response rating, Rice: 10
pigweed, palmer [12]; [31]
  Pigweed, Palmer plant response rating: 90
pigweed, palmer [12]; [32]
  Plant response rating, Pigweed, Palmer: 100
Barnyardgrass [22]
  Plant response rating, Barnyardgrass: 10
Goosegrass [23]; [28]
  Goosegrass plant response rating: 80
Goosegrass [23]; 500 g ai/ha
  Plant response rating, Goosegrass: 80
Corn [24]; [28]
  Corn plant response rating: 20
Corn [24]; 500 g ai/ha
  Plant response rating, Corn: 80
oat, wild [25]; [29]
  Plant response rating, Oat, Wild: 40
oat, wild [25]; [30]
  Plant response rating, Oat, Wild: 80
Ragweed [13]; [29]
  Plant response rating, Ragweed: 0
Ragweed [13]; [30]
  Plant response rating, Ragweed: 0
galium; [31]
  Galium plant response rating: 50
galium; [32]
  Plant response rating, Galium: 100

## C[C@H]1CN(C(=O)c2cc(-n3cncn3)ccc2C(F)(F)F)c2cccc(Cl)c2O1 [Compound 70]
oat, wild [15]
  Plant response rating, Oat, Wild: 10
Wheat [16]; [29]
  Plant response rating, Wheat: 0
Wheat [16]; [30]
  Plant response rating, Wheat: 10
foxtail, giant [1]; [33]
  Plant response rating, Foxtail, Giant: 10
foxtail, giant [1]; [32]
  Plant response rating, Foxtail, Giant: 30
ryegrass, Italian [2]; [32]
  Plant response rating, Ryegrass, Italian: 30
Ragweed [3]; [32]
  Plant response rating, Ragweed: 0
Soybean [17]; [29]
  Plant response rating, Soybean: 0
Soybean [17]; [30]
  Plant response rating, Soybean: 0
sedge, umbrella
  Plant response rating, Sedge, Umbrella: 0
Kochia [4]; [33]
  Plant response rating, Kochia: 10
Kochia [4]; [32]
  Plant response rating, Kochia: 60
ryegrass, Italian [5]; [29]
  Plant response rating, Ryegrass, Italian: 50
ryegrass, Italian [5]; [30]
  Plant response rating, Ryegrass, Italian: 90
Blackgrass [7]; [29]
  Plant response rating, Blackgrass: 30
Blackgrass [7]; [30]
  Plant response rating, Blackgrass: 80
ducksalad
  Plant response rating, Ducksalad: 0
horseweed; [33]
  Plant response rating, Horseweed: 0
horseweed; [32]
  Plant response rating, Horseweed: 0
Goosegrass [18]; [29]
  Plant response rating, Goosegrass: 70
Goosegrass [18]; [30]
  Plant response rating, Goosegrass: 100
Kochia [8]; [29]
  Plant response rating, Kochia: 0
Kochia [8]; [30]
  Plant response rating, Kochia: 0
Corn [19]; [29]
  Plant response rating, Corn: 10
Corn [19]; [30]
  Plant response rating, Corn: 20
Soybean [20]
  Plant response rating, Soybean: 100
foxtail, giant [9]; [29]
  Plant response rating, Foxtail, Giant: 20
foxtail, giant [9]; [30]
  Plant response rating, Foxtail, Giant: 100
pigweed, palmer [10]; [29]
  Plant response rating, Pigweed, Palmer: 20
pigweed, palmer [10]; [30]
  Plant response rating, Pigweed, Palmer: 90
Wheat [21]
  Plant response rating, Wheat: 20
Blackgrass [11]; [33]
  Plant response rating, Blackgrass: 30
Blackgrass [11]; 500 g ai/ha, Postemergence, 0 to 100 scale
  Plant response rating, Blackgrass: 70
rice
  Plant response rating, Rice: 0
pigweed, palmer [12]; [32]
  Plant response rating, Pigweed, Palmer: 70
Barnyardgrass [22]
  Plant response rating, Barnyardgrass: 0
Goosegrass [23]; 125 g ai/ha
  Plant response rating, Goosegrass: 10
Goosegrass [23]; 500 g ai/ha
  Plant response rating, Goosegrass: 10
Corn [24]; 125 g ai/ha
  Plant response rating, Corn: 10
Corn [24]; 500 g ai/ha
  Plant response rating, Corn: 10
oat, wild [25]; [29]
  Plant response rating, Oat, Wild: 0
oat, wild [25]; [30]
  Plant response rating, Oat, Wild: 70
Ragweed [13]; [29]
  Plant response rating, Ragweed: 0
Ragweed [13]; [30]
  Plant response rating, Ragweed: 0
galium; [33]
  Plant response rating, Galium: 50
galium; [32]
  Plant response rating, Galium: 80
